Data as given in US8765054B2, “Process for treatment of residual nucleic acids present on the surface of laboratory consumables” (EMD Millipore Corporation, priority 2010, dated 2014).

Legend:
[1] = test system: Germs (P. acnes, P. aeruginosa); assay: Residual RNA contained in microorganisms (germs) on tubes after treatment, determined by TMA; format: cell-based
Procedure: (§1) Several consumables consisting of 1.5 ml polypropylene tubes were contaminated in parallel with a known quantity of DNA, RNA or microorganisms. These consumables were then gamma-sterilized (doses from 0 to 60 kGy) or treated with ethylene oxide in gaseous phase. After sterilization, the presence of residual nucleic acids is determined by PCR (for DNA) and TMA (for RNA) and compared with an unsterilized control consumable.
(§2) Several consumables of the same type as those used in protocol 1 were contaminated with the same known quantity of DNA, RNA or microorganisms. These consumables were then treated by a treatment with hydrogen peroxide made in liquid solution (respectively 3% and 30% H2O2). The hydrogen peroxide is evaporated at the end of the process by virtue of a step of drying under vacuum at a temperature of 60° C. After treatment, the presence of residual nucleic acids was determined by PCR (for DNA) and TMA (for RNA) and compared with an untreated sample.
(§3) Several consumables of the same type as those used in protocol 1 were contaminated with the same known quantity of DNA, RNA or microorganisms. A proportion of those consumables was then treated according to the invention with gaseous ethylene oxide followed by the 3% or 30% hydrogen peroxide. A further proportion was treated with gamma radiation instead of with the gaseous ethylene oxide then with hydrogen peroxide. In both cases, the hydrogen peroxide was evaporated by virtue of a vacuum drying step at a temperature of 60° C. After treatment, the presence of residual nucleic acids was determined by PCR (for DNA) and TMA (for RNA) and compared with an untreated sample.

[2] = test system: DNA (E. coli, P. aeruginosa); assay: Residual free DNA on 1.5 ml polypropylene tubes after treatment, determined by PCR
Procedure: as §1, §2

[3] = test system: RNA (P. acnes, P. aeruginosa); assay: Residual free RNA on 1.5 ml polypropylene tubes after treatment, determined by TMA; parameters: key to the marks not given beside the values
Procedure: as §1, §2

[4] = test system: Germs (E. coli, P. aeruginosa); assay: Residual DNA contained in microorganisms (germs) on tubes after treatment, determined by PCR; format: cell-based
Procedure: as §1, §2, §3

[5] = Protocol 2, liquid H2O2, minimum time of action 40 min at 60° C.

SMILES | Effectiveness of the residual nucleic acid treatment, Germs (TMA) ([1]; Protocol 1, RNA in microorganisms, P. acnes, P. aeruginosa) | Effectiveness of the residual nucleic acid treatment, DNA (PCR) ([2]; Protocol 1, free DNA, E. coli, P. aeruginosa, vs unsterilized control) | Effectiveness of the residual nucleic acid treatment, RNA (TMA) ([3]; Protocol 1, free RNA, P. acnes, P. aeruginosa, vs unsterilized control) | Effectiveness of the residual nucleic acid treatment, Germs (PCR) ([4]; Protocol 1, DNA in microorganisms, E. coli, P. aeruginosa) | Effectiveness of the residual nucleic acid treatment, Germs (TMA) [1, 5] | Effectiveness of the residual nucleic acid treatment, DNA (PCR) [2, 5] | Effectiveness of the residual nucleic acid treatment, RNA (TMA) [3, 5] | Effectiveness of the residual nucleic acid treatment, Germs (PCR) [4, 5]
C1CO1 [EO, ethylene oxide] | − | + | +++ | + |  |  |  | 
OO [H2O2 3%, hydrogen peroxide] |  |  |  |  | − | ++ | ++ | −
OO [H2O2 30%, hydrogen peroxide] |  |  |  |  | − | +++ | +++ | −
